We go through five compounds from patent US10344049B2, “Substituted steroids for the treatment of cancer” (AQUAVAN TECHNOLOGY CO., LTD., priority 2017, dated 2019).

Read-outs that look alike come from different tables or passages of the source.

Common to all, as to format: cell-based
Assay [1] relates to African green monkey kidney cells Vero. The assay can be described thus: Cell viability test (Resazurin), Vero cells. The protocol: (§1) Cell viability was determined with Resazurin (at a final concentration of 25 μg/mL).
Assay [2] has as its system human breast cancer cells MDA-MB-231. The assay can be described thus: Cell viability test (Resazurin), MDA-MB-231 cells. The arrangement: evaluation of ability to inhibit cell growth activity (IC50): scale not given here. The protocol: as §1
(Resazurin is reduced to fluorescent resorufin, in cell work by metabolically active cells.)

The subject of assay [3] is human Glioblastoma cells U87-MG. The assay can be described thus: Cell viability test (Resazurin), U87-MG cells. Also on record: evaluation of ability to inhibit cell growth activity (IC50): scale not given here. The protocol:
as §1

In assay [4] the test system is human breast cancer cells MDA-MB-468. The experiment in a line: Cell viability test (Resazurin), MDA-MB-468 cells. The method, then: as §1
Assay [5] deals with human liver cancer cells Mahlavu. The assay can be described thus: Cell viability test (Resazurin), Mahlavu cells. The protocol: as §1
For assay [6], the system named is human lung cancer cells A549. The assay can be described thus: Cell viability test (Resazurin), A549 cells. Also on record: evaluation of ability to inhibit cell growth activity (IC50): scale not given here. The protocol: as §1
Assay [7] relates to human colorectal cancer cells SW-480. The assay can be described thus: Cell viability test (Resazurin), SW480 cells. The protocol: as §1
In assay [8] the test system is human leukemia cells U937. The experiment in a line: Cell viability test (Resazurin), U937 cells. The protocol: as §1
The mark [9] stands for this setting: Chlorocebus sabaeus, Vero, 48 h, 0.1% FCS, Resazurin, read-out: inhibitory concentrations of cell growth activity IC50.
The mark [10] stands for this setting: Chlorocebus sabaeus, Vero, grade of the IC50 of Table 2, read-out: evaluation of ability to inhibit cell growth activity (IC50).
The mark [11] stands for this setting: Homo sapiens, MDA-MB-231, 48 h, MDA-MB-231 cells, 48 hours, 0.1% FCS, Resazurin, read-out: inhibitory concentrations of cell growth activity IC50.
The mark [12] stands for this setting: Homo sapiens, MDA-MB-231, MDA-MB-231 cells, grade of the IC50 of Table 2, read-out: evaluation of ability to inhibit cell growth activity (IC50).
Setting [13] is: Homo sapiens, U-87 MG, 48 h, 0.1% FCS, Resazurin, read-out: inhibitory concentrations of cell growth activity IC50.
The mark [14] stands for this setting: Homo sapiens, U-87 MG, grade of the IC50 of Table 2, read-out: evaluation of ability to inhibit cell growth activity (IC50).
Where [15] appears, read: Homo sapiens, MDA-MB-468, 48 h, MDA-MB-468 cells, 48 hours, 0.1% FCS, Resazurin, read-out: inhibitory concentrations of cell growth activity IC50.
[16] abbreviates: Homo sapiens, MDA-MB-468, MDA-MB-468 cells, grade of the IC50 of Table 2, read-out: evaluation of ability to inhibit cell growth activity (IC50).
Setting [17] is: Homo sapiens, Mahlavu, 48 h, 0.1% FCS, Resazurin, read-out: inhibitory concentrations of cell growth activity IC50.
Where [18] appears, read: Homo sapiens, Mahlavu, grade of the IC50 of Table 2, read-out: evaluation of ability to inhibit cell growth activity (IC50).
The mark [19] stands for this setting: Homo sapiens, A549, 48 h, A549 cells, 48 hours, 0.1% FCS, Resazurin, read-out: inhibitory concentrations of cell growth activity IC50.
Setting [20] is: Homo sapiens, A549, A549 cells, grade of the IC50 of Table 2, read-out: evaluation of ability to inhibit cell growth activity (IC50).
Setting [21] is: Homo sapiens, SW480, 48 h, SW480 cells, 48 hours, 0.1% FCS, Resazurin, read-out: inhibitory concentrations of cell growth activity IC50.
The mark [22] stands for this setting: Homo sapiens, SW480, SW480 cells, grade of the IC50 of Table 2, read-out: evaluation of ability to inhibit cell growth activity (IC50).
Where [23] appears, read: U937 cells, 48 hours, 0.1% FCS, Resazurin, read-out: inhibitory concentrations of cell growth activity IC50.
[24] abbreviates: U937 cells, grade of the IC50 of Table 2, read-out: evaluation of ability to inhibit cell growth activity (IC50).
Where [25] appears, read: 48 hours, 0.1% FCS, Resazurin, read-out: inhibitory concentrations of cell growth activity IC50.
Where [26] appears, read: grade of the IC50 of Table 2, read-out: evaluation of ability to inhibit cell growth activity (IC50).
Setting [27] is: MDA-MB-231 cells, 48 hours, 0.1% FCS, Resazurin, read-out: inhibitory concentrations of cell growth activity IC50.
Setting [28] is: MDA-MB-231 cells, grade of the IC50 of Table 2, read-out: evaluation of ability to inhibit cell growth activity (IC50).
The mark [29] stands for this setting: MDA-MB-468 cells, 48 hours, 0.1% FCS, Resazurin, read-out: inhibitory concentrations of cell growth activity IC50.
Where [30] appears, read: MDA-MB-468 cells, grade of the IC50 of Table 2, read-out: evaluation of ability to inhibit cell growth activity (IC50).
The mark [31] stands for this setting: A549 cells, 48 hours, 0.1% FCS, Resazurin, read-out: inhibitory concentrations of cell growth activity IC50.
Where [32] appears, read: SW480 cells, 48 hours, 0.1% FCS, Resazurin, read-out: inhibitory concentrations of cell growth activity IC50.
[33] abbreviates: SW480 cells, grade of the IC50 of Table 2, read-out: evaluation of ability to inhibit cell growth activity (IC50).
Where [34] appears, read: Homo sapiens, U-937, 48 h, U937 cells, 48 hours, 0.1% FCS, Resazurin, read-out: inhibitory concentrations of cell growth activity IC50.
The mark [35] stands for this setting: Homo sapiens, U-937, U937 cells, grade of the IC50 of Table 2, read-out: evaluation of ability to inhibit cell growth activity (IC50).

On to `COC1O[C@]23C=C[C@@H]4[C@@]1(CC[C@]1(C)[C@@H]([C@H](C)C[C@H](C=C(C)C)OC)CC[C@@]41C)[C@@H]2CC[C@H](O)C3(C)C` (stereo partly drawn) [Compound 16], for which the IC50 in assay [1] (setting [9]), in assay [1] (setting [10]), in assay [2] (setting [11]), in assay [2] (setting [12]), in assay [3] (setting [13]) and in assay [3] (setting [14]) was greater than 256 µM each time. The IC50 in assay [4] (setting [15]), in assay [4] (setting [16]), in assay [5] (setting [17]), in assay [5] (setting [18]), in assay [6] (setting [19]) and in assay [6] (setting [20]) was greater than 256 µM in each case. Further, the IC50 was greater than 256 µM in assay [7] (setting [21]), greater than 256 µM in assay [7] (setting [22]), 97.9 µM in assay [8] (setting [23]) and 64 to 256 µM in assay [8] (setting [24]).
For `C[C@H](C/C=C/C(C)(C)O)[C@H]1CC[C@@]2(C)[C@@H]3[C@@H](O[C@@H]4O[C@H](CO)[C@@H](O)[C@H](O)[C@H]4O)C=C4[C@@H](CC[C@H](O)C4(C)C)[C@]3(C=O)CC[C@]12C` [Compound 14], the IC50 in assay [1] (setting [25]) was greater than 256 µM; in assay [1] (setting [26]), greater than 256 µM; in assay [2] (setting [27]), 32.8 µM; in assay [2] (setting [28]) it was 16 to 64 µM; in assay [3] (setting [25]) it was 58.5 µM; in assay [3] (setting [26]), 16 to 64 µM. The IC50 in assay [4] (setting [29]) is 39.3 µM; in assay [4] (setting [30]) it was 16 to 64 µM; in assay [5] (setting [25]), greater than 256 µM; in assay [5] (setting [26]) it was greater than 256 µM; in assay [6] (setting [31]), 171 µM; in assay [6] (A549 cells, grade of the IC50 of Table 2, read-out: evaluation of ability to inhibit cell growth activity (IC50)), 64 to 256 µM. The IC50 was 64.2 µM in assay [7] (setting [32]), 64 to 256 µM in assay [7] (setting [33]), 19.8 µM in assay [8] (setting [23]) and 16 to 64 µM in assay [8] (setting [24]).
`COC1O[C@]23C=C[C@@H]4[C@@]1(CC[C@]1(C)[C@@H]([C@H](C)C[C@@H](O)C=C(C)C)CC[C@@]41C)[C@@H]2CC[C@H](O)C3(C)C` (stereo partly drawn) [Compound 21]: the IC50 was greater than 256 µM in assay [1] (setting [9]); greater than 256 µM in assay [1] (setting [10]); 130 µM in assay [2] (setting [11]); 64 to 256 µM in assay [2] (setting [28]); 83.5 µM in assay [3] (setting [25]); 64 to 256 µM in assay [3] (setting [26]). Besides, the IC50 in assay [4] (setting [29]) was 35.4 µM; in assay [4] (setting [30]), 16 to 64 µM; in assay [5] (setting [17]), greater than 256 µM; in assay [5] (setting [18]), greater than 256 µM; in assay [6] (setting [19]), greater than 256 µM; in assay [6] (setting [20]), greater than 256 µM. The IC50 in assay [7] (setting [32]) is 118 µM; in assay [7] (setting [33]), 64 to 256 µM; in assay [8] (setting [34]) it was 6.19 µM; in assay [8] (setting [35]) it was less than 8 µM.
Take `CC(=O)O[C@@H](C=C(C)C)C[C@@H](C)[C@H]1CC[C@@]2(C)[C@@H]3[C@@H](O)C=C4[C@@H](CC[C@H](O)C4(C)C)[C@]3(C=O)CC[C@]12C` [Compound 10]: the IC50 in assay [1] (setting [9]) was 19.2 µM; in assay [1] (setting [10]), 16 to 64 µM; in assay [2] (setting [11]), 10.7 µM; in assay [2] (setting [12]), 8 to 16 µM; in assay [3] (setting [13]) it was 10.7 µM; in assay [3] (setting [14]), 8 to 16 µM. The IC50 was 20.3 µM in assay [4] (setting [15]); 16 to 64 µM in assay [4] (setting [16]); 19.4 µM in assay [5] (setting [17]); 16 to 64 µM in assay [5] (setting [18]); 9.81 µM in assay [6] (setting [19]); 8 to 16 µM in assay [6] (setting [20]). In addition, the IC50 was 17.9 µM in assay [7] (setting [21]), 16 to 64 µM in assay [7] (setting [22]), 5.92 µM in assay [8] (setting [34]) and less than 8 µM in assay [8] (setting [35]). In addition, the “evaluation of ability to inhibit cell growth activity (IC50)” value in assay [2] (MDA-MB-231 cells, grade of the IC50 of Table 2) is “◯”; in assay [3] (grade of the IC50 of Table 2), “◯”; in assay [6] (A549 cells, grade of the IC50 of Table 2), “◯”.
With `COC1O[C@]23C=C[C@@H]4[C@@]1(CC[C@]1(C)[C@@H]([C@H](C)C/C=C/C(C)(C)O)CC[C@@]41C)[C@@H]2CC[C@H](O)C3(C)C` (stereo partly drawn) [Compound 19], the IC50 was 36.1 µM in assay [1] (setting [25]); 16 to 64 µM in assay [1] (setting [10]); 22.6 µM in assay [2] (setting [27]); 16 to 64 µM in assay [2] (setting [28]); 25 µM in assay [3] (setting [25]); 16 to 64 µM in assay [3] (setting [26]). Moreover, the IC50 in assay [4] (setting [29]) was 24.4 µM; in assay [4] (setting [30]), 16 to 64 µM; in assay [5] (setting [17]), 20.7 µM; in assay [5] (setting [18]) it was 16 to 64 µM; in assay [6] (setting [31]), 45.6 µM; in assay [6] (setting [20]) it was 16 to 64 µM. Moreover, the IC50 is 16.6 µM in assay [7] (setting [21]), 16 to 64 µM in assay [7] (setting [33]), 8 to 16 µM in assay [8] (setting [35]) and 11.9 µM in assay [8] (setting [23]). For the same compound, in assay [8] (U937 cells, grade of the IC50 of Table 2), the “evaluation of ability to inhibit cell growth activity (IC50)” value is on record as “◯”.
